Results on two molecules are retold here after patent publication US10316057B2, “Tandem facial amphiphiles” (WISCONSIN ALUMNI RESEARCH FOUNDATION, priority 2011, dated 2019).

Series [1] in a line: Hydrodynamic radii of micelles by dynamic light scattering (DLS). It is filed as physicochemical. The settings on record: 0.5 wt % amphiphile in water, 25° C.; mean ± SD, n = 3. As for the experimental part:
TFA-0 forms a hydrogel at concentrations >0.4 wt %, and this compound was not studied further. The other three TFAs are soluble to 5-10 wt % in aqueous media. Critical micelle concentrations (CMC) were determined by monitoring solubilization of a hydrophobic fluorescent dye, […] (Chattopadhyay et al., Anal. Biochem. 1984, 139, 408-412), and the hydrodynamic radii (Rh) of the micelles were determined via dynamic light scattering (DLS). Table 1 compares the data for TFAs with those for DDM, a conventional detergent that is very widely used for MP applications; DDM and the TFAs share maltose as their hydrophilic moieties. CMC values of the three TFAs are smaller than that of DDM, whether CMC is measured in units of mM or wt %.
Each TFA and DDM was dissolved in distilled, deionized (DI) water to obtain 1 mL of a solution containing 0.5 wt % amphiphile. Each solution was filtered through a 0.02 μm filter for DLS measurements. A 100-mW, 532-nm laser (Compass 315M-100, Coherent, Santa Clara, Calif.) illuminated a temperature-controlled glass cell at 25° C. that was filled with a refractive-index matching fluid (decahydronaphthalene, Fisher Scientific, Pittsburgh, Pa.). The scattered light was collected at an angle of 90° for about 30 minutes. Rh values were determined using the integrated dynamics software that analyzes the time scale of the scattered light intensity fluctuations by an autocorrelation function. The autocorrelation functions (ACFs) were obtained using a BI-9000AT digital autocorrelator (Brookhaven Instruments, Holtsville, N.Y.). Measurements were repeated three times.

In series [2] the target is T1, Bacteriorhodopsin (bR) (Halobacterium salinarum, UniProt P02945).
T1 construct: extract bR from the native purple membrane; endogenous in cells
T1 sequence (P02945 14-261 limits assumed): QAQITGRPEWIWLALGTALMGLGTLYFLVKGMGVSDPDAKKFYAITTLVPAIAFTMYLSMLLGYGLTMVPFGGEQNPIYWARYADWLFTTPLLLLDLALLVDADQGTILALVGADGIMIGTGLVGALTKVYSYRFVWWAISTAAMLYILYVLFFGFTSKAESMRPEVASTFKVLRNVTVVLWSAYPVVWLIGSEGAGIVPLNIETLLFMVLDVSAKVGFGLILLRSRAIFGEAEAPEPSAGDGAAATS
As to the kind of experiment: Stabilization assay for bacteriorhodopsin (absorbance at 554 nm). The settings on record: day 20, room temperature, 0.2 wt % OTG+0.8 wt % TFA. As for the experimental part:
Bacteriorhodopsin (bR) has been widely employed for assessment of new amphiphiles because this membrane protein is readily available, and stability can be assessed via spectrophotometry (absorbance at 554 nm). Following standard protocols (Bazzacco et al., Biomacromolecules 2009, 10, 3317-3326), 2.0 wt % octyl-β-D-thioglucoside (OTG) was used to extract bR from the native purple membrane. After removal of insoluble debris via ultracentrifugation, the bR solution was diluted with amphiphile-containing solutions to generate samples containing 0.2 wt % OTG+0.8 wt % TFA. A control sample had OTG added to give a total of 1.0 wt %. […] Parallel studies were carried out at different amphiphile concentrations as described in Example 3 below. DDM is not efficient at bR extraction from the native membrane but extracted bR can be stable in the presence of DDM (Milder et al., Biochemistry 1991, 30, 1751-1761).
The general procedure was followed according to the reported protocol of Bazzacco et al. (Biomacromolecules 10, 3317-3326 (2009)). Frozen aliquots of purple membranes containing bR at 184 μM were thawed and solubilized by incubation with octylthioglucoside (OTG) for 24 hr at 4° C. in a dark room. For the solubilization, OTG (CMC=0.28 wt %) was used at 2.0 wt % in 10 mM sodium phosphate (pH 6.9). […] BR stability in each TFA solutions was monitored by measuring absorbance at 554 nm for 20 days.

Where a name gives a salt, the structure may show the parent alone.

As for `CCCCCCCCCCCCO[C@@H]1O[C@H](CO)[C@@H](O[C@H]2O[C@H](CO)[C@@H](O)[C@H](O)[C@H]2O)[C@H](O)[C@H]1O` [DDM, dodecyl-β-D-maltoside, reference compound], the “Rh (nm), hydrodynamic radius of micelles measured by dynamic light scattering” value in series [1] came to 3.4 ± 0.03 nm. Turning to `C[C@H](CCC(=O)N(C)CCCN(C)C(=O)CC[C@@H](C)[C@H]1CC[C@H]2[C@@H]3CC[C@@H]4C[C@H](O[C@@H]5O[C@H](CO)[C@@H](O[C@H]6O[C@H](CO)[C@@H](O)[C@H](O)[C@H]6O)[C@H](O)[C@H]5O)CC[C@]4(C)[C@H]3C[C@H](O[C@@H]3O[C@H](CO)[C@@H](O[C@H]4O[C@H](CO)[C@@H](O)[C@H](O)[C@H]4O)[C@H](O)[C@H]3O)[C@]12C)[C@H]1CC[C@H]2[C@@H]3CC[C@@H]4C[C@H](O[C@@H]5O[C@H](CO)[C@@H](O[C@H]6O[C@H](CO)[C@@H](O)[C@H](O)[C@H]6O)[C@H](O)[C@H]5O)CC[C@]4(C)[C@H]3C[C@H](O[C@@H]3O[C@H](CO)[C@@H](O[C@H]4O[C@H](CO)[C@@H](O)[C@H](O)[C@H]4O)[C@H](O)[C@H]3O)[C@]12C` [TFA-1], the bR intact in series [2] is about 80%. In series [1], the “Rh (nm), hydrodynamic radius of micelles measured by dynamic light scattering” value came out at 1.9 ± 0.08 nm.
